In paper PMC12904578 (PLOS Pathogens, 2026):
“Also recorded” adds a separate entry of the source.

Assays:
[1] = test system: VN1194 H5 HA from A/Vietnam/1194/2004 (H5N1); details: cited from earlier work
H5FR H5 HA = assay type: binding, A/duck/France/161108h/2016 (H5N8)
[2] = test system: Sh2 H7 HA from A/Shanghai/2/2013 (H7N9); details: cited from earlier work
[3] = target: H5FR H5 HA ectodomain from A/duck/France/161108h/2016 (H5N8), polyhistidine-tagged (SPR form) (influenza A virus A/duck/France/161108h/2016 (H5N8)); test: SPR

CC(=O)NC1C(O)OC(CO)C(OC2OC(CO)C(O)C(OC3(C(=O)O)CC(O)C(NC(C)=O)C(C(O)C(O)CO)O3)C2O)C1O (centres unmarked) [3´-SLN, NeuAcα2–3Galβ1–4GlcNAc]
Siaα2–3Gal linkage configuration of 3´-SLN in VN1194 H5 HA [1]: trans configuration

NeuAcα2–3Galβ1–3GlcNAcβ1–3Galβ1–4Glc [LSTa]
LSTa residues visible in VN1194 H5 HA complex [1]: only Sia-1 and Gal-2 were visible | binding interactions in H5FR HA receptor binding site (H5FR H5 HA): Sia-1, Gal-2 and GlcNAc-3 were ordered; also recorded: similarly to VN1194 HA or H5VN HA

NeuAcα2–3Galβ1–4GlcNAcβ1–3GalNAcα-Thr [glycan #21]
binding mode of glycan in Sh2 H7 HA [2]: adopts a cis configuration in the Siaα2–3Gal linkage

O-linked glycopeptide compound 2 (core 1 on peptide FVTIG, no sialic acid)
Kd [3]: > 650 µM
